Values of other authors, collected in patent US9750812B2, “Lipid based pharmaceutical preparations for oral and topical application; their compositions, methods, and uses thereof” (JINA PHARMACEUTICALS, INC., priority 2008, dated 2017).

CC(C)(C)NC(=O)[C@H]1CC[C@H]2[C@@H]3CC[C@H]4NC(=O)C=C[C@]4(C)[C@H]3CC[C@]12C [finasteride, (5α, 17β)-N-(1,1-dimethylethyl)-3-oxo-4-azaandrost-1-ene-17-carboxamide]
solubility in organic solvents (organic solvents such as ethanol and methanol): soluble | solubility in water (water): practically insoluble
